Legend:
[1] = test system: rice (Oryza sative, variety: Koshihikari); assay: Paddy field treatment (Test Example 3), crop; assay type: in vivo, Oryza sativa; details: transplanted rice two-leaf period, water surface treatment 10th day after transplantation, 1 kg active ingredient per hectare, evaluated 21st day, lower index = higher safety
Summary of the method: (§1)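 Index scoring of herbicidal effect and rice safety 21 days after treatment. The wettable powder, dosed at 1 kg a.i./ha, was dripped onto flooded pots (4 cm water) 10 days after transplanting two-leaf Koshihikari rice. Weed seeds had been sown into the puddled soil.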

Setaria viridis [2] = assay: Upland field foliage treatment (Test Example 1); assay type: in vivo; details: foliage treatment 14th day after sowing, wettable powder, 1 kg active ingredient per hectare, evaluated 21st day after application
Summary of the method: (§2)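 Scored on an index 21 days after treatment: a high value on weeds means more herbicidal effect, and a low value on crops means more crop safety. Treatment was a foliar spray of water-diluted wettable powder at 1 kg a.i./ha, applied to plants 14 days after sowing in upland soil.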

Chenopodium album [3] = assay: Upland field foliage treatment (Test Example 1); assay type: in vivo; details: foliage treatment 14th day after sowing, wettable powder, 1 kg active ingredient per hectare, evaluated 21st day after application
Summary of the method: as §2

Stellaria media [4] = assay: Upland field foliage treatment (Test Example 1); assay type: in vivo; details: foliage treatment 14th day after sowing, wettable powder, 1 kg active ingredient per hectare, evaluated 21st day after application
Summary of the method: as §2

Digitaria adscendens [5] = assay: Upland field foliage treatment (Test Example 1); assay type: in vivo; details: foliage treatment 14th day after sowing, wettable powder, 1 kg active ingredient per hectare, evaluated 21st day after application
Summary of the method: as §2

Echinochloa spp. = assay: Paddy field treatment (Test Example 3); assay type: in vivo, Echinochloa crusgalli; details: paddy pot, submerged 4 cm, dropped on water surface 10th day after transplantation, 1 kg active ingredient per hectare, evaluated 21st day
Summary of the method: as §1

[6] = test system: wheat (Triticum aestivum); assay: Upland field foliage treatment (Test Example 1), crop; assay type: in vivo; details: foliage treatment 14th day after sowing, 1 kg active ingredient per hectare, evaluated 21st day, lower index = higher safety
Summary of the method: as §2

soybean (Glycine max) [7] = assay: as above; assay type: in vivo; details: foliage treatment 14th day after sowing, 1 kg active ingredient per hectare, evaluated 21st day, lower index = higher safety
Summary of the method: as §2

Setaria viridis [8] = assay: Upland soil treatment (Test Example 2); assay type: in vivo; details: soil surface treatment next day after sowing, wettable powder, 1 kg active ingredient per hectare, evaluated 21st day after application
Summary of the method: (§3)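 Pre-emergence soil treatment: day after sowing, WP formulation diluted in water, applied uniformly to soil surface at 1 kg a.i./ha. Seeds sown ~1 cm deep in upland soil. Visual index read 21 d after application (weeds: high = effective; crop: low = safe).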

Chenopodium album [9] = assay: Upland soil treatment (Test Example 2); assay type: in vivo; details: soil surface treatment next day after sowing, wettable powder, 1 kg active ingredient per hectare, evaluated 21st day after application
Summary of the method: as §3

Stellaria media [10] = assay: Upland soil treatment (Test Example 2); assay type: in vivo; details: soil surface treatment next day after sowing, wettable powder, 1 kg active ingredient per hectare, evaluated 21st day after application
Summary of the method: as §3

Digitaria adscendens [11] = assay: Upland soil treatment (Test Example 2); assay type: in vivo; details: soil surface treatment next day after sowing, wettable powder, 1 kg active ingredient per hectare, evaluated 21st day after application
Summary of the method: as §3

[12] = test system: wheat (Triticum aestivum); assay: Upland soil treatment (Test Example 2), crop; assay type: in vivo; details: soil surface treatment next day after sowing, 1 kg active ingredient per hectare, evaluated 21st day, lower index = higher safety
Summary of the method: as §3

soybean (Glycine max) [13] = assay: Upland soil treatment (Test Example 2), crop; assay type: in vivo; details: soil surface treatment next day after sowing, 1 kg active ingredient per hectare, evaluated 21st day, lower index = higher safety
Summary of the method: as §3

Scirpus juncoides = assay: Paddy field treatment (Test Example 3); assay type: in vivo; details: paddy pot, submerged 4 cm, dropped on water surface 10th day after transplantation, 1 kg active ingredient per hectare, evaluated 21st day
Summary of the method: as §1

Monochoria vaginalis = assay: Paddy field treatment (Test Example 3); assay type: in vivo; details: paddy pot, submerged 4 cm, dropped on water surface 10th day after transplantation, 1 kg active ingredient per hectare, evaluated 21st day
Summary of the method: as §1

Ammannia multiflora = assay: Paddy field treatment (Test Example 3); assay type: in vivo; details: paddy pot, submerged 4 cm, dropped on water surface 10th day after transplantation, 1 kg active ingredient per hectare, evaluated 21st day
Summary of the method: as §1

Structure (SMILES)	Herbicidal activity Oryza sativa [1]	Herbicidal activity Setaria viridis (Setaria viridis [2])	Herbicidal activity Chenopodium album (Chenopodium album [3])	Herbicidal activity Stellaria media (Stellaria media [4])	Herbicidal activity Digitaria adscendens (Digitaria adscendens [5])	Herbicidal activity Echinochloa spp. (Echinochloa spp.)	Herbicidal activity Triticum aestivum [6]	Herbicidal activity Glycine max (soybean (Glycine max) [7])	Herbicidal activity Setaria viridis (Setaria viridis [8])	Herbicidal activity Chenopodium album (Chenopodium album [9])	Herbicidal activity Stellaria media (Stellaria media [10])	Herbicidal activity Digitaria adscendens (Digitaria adscendens [11])	Herbicidal activity Triticum aestivum [12]	Herbicidal activity Glycine max (soybean (Glycine max) [13])	Herbicidal activity Scirpus juncoides (Scirpus juncoides)	Herbicidal activity Monochoria vaginalis (Monochoria vaginalis)	Herbicidal activity Ammannia multiflora (Ammannia multiflora)
COC=C(Cn1nc(-c2cccc(Cl)c2)c(C)c1C)C(=O)OC [Compound 34]	0 (herbicidal effect of not less than 0% by weight and less than 10% by weight)	4 (herbicidal effect of not less than 70% by weight and less than 90% by weight)	5 (herbicidal effect of not less than 90% by weight)	4 (herbicidal effect of not less than 70% by weight and less than 90% by weight)	5 (herbicidal effect of not less than 90% by weight)	3 (herbicidal effect of not less than 50% by weight and less than 70% by weight)	1 (herbicidal effect of not less than 10% by weight and less than 30% by weight)	1 (herbicidal effect of not less than 10% by weight and less than 30% by weight)	4 (herbicidal effect of not less than 70% by weight and less than 90% by weight)	4 (herbicidal effect of not less than 70% by weight and less than 90% by weight)	4 (herbicidal effect of not less than 70% by weight and less than 90% by weight)	4 (herbicidal effect of not less than 70% by weight and less than 90% by weight)	0 (herbicidal effect of not less than 0% by weight and less than 10% by weight)	0 (herbicidal effect of not less than 0% by weight and less than 10% by weight)	3 (herbicidal effect of not less than 50% by weight and less than 70% by weight)	5 (herbicidal effect of not less than 90% by weight)	3 (herbicidal effect of not less than 50% by weight and less than 70% by weight)
COC=C(Cn1nc(-c2ccc(Cl)c(Cl)c2)c(Cl)c1C)C(=O)OC [Compound 24]	0 (herbicidal effect of not less than 0% by weight and less than 10% by weight)	4 (herbicidal effect of not less than 70% by weight and less than 90% by weight)	4 (herbicidal effect of not less than 70% by weight and less than 90% by weight)	4 (herbicidal effect of not less than 70% by weight and less than 90% by weight)	4 (herbicidal effect of not less than 70% by weight and less than 90% by weight)	4 (herbicidal effect of not less than 70% by weight and less than 90% by weight)	0 (herbicidal effect of not less than 0% by weight and less than 10% by weight)	0 (herbicidal effect of not less than 0% by weight and less than 10% by weight)	4 (herbicidal effect of not less than 70% by weight and less than 90% by weight)	4 (herbicidal effect of not less than 70% by weight and less than 90% by weight)	4 (herbicidal effect of not less than 70% by weight and less than 90% by weight)	4 (herbicidal effect of not less than 70% by weight and less than 90% by weight)	0 (herbicidal effect of not less than 0% by weight and less than 10% by weight)	0 (herbicidal effect of not less than 0% by weight and less than 10% by weight)	3 (herbicidal effect of not less than 50% by weight and less than 70% by weight)	3 (herbicidal effect of not less than 50% by weight and less than 70% by weight)	3 (herbicidal effect of not less than 50% by weight and less than 70% by weight)
COC=C(Cn1ccc(-c2ccccc2)n1)C(=O)OC [Compound 1]	1 (herbicidal effect of not less than 10% by weight and less than 30% by weight)	5 (herbicidal effect of not less than 90% by weight)	5 (herbicidal effect of not less than 90% by weight)	5 (herbicidal effect of not less than 90% by weight)	5 (herbicidal effect of not less than 90% by weight)	5 (herbicidal effect of not less than 90% by weight)	1 (herbicidal effect of not less than 10% by weight and less than 30% by weight)	1 (herbicidal effect of not less than 10% by weight and less than 30% by weight)	4 (herbicidal effect of not less than 70% by weight and less than 90% by weight)	4 (herbicidal effect of not less than 70% by weight and less than 90% by weight)	4 (herbicidal effect of not less than 70% by weight and less than 90% by weight)	5 (herbicidal effect of not less than 90% by weight)	0 (herbicidal effect of not less than 0% by weight and less than 10% by weight)	0 (herbicidal effect of not less than 0% by weight and less than 10% by weight)	5 (herbicidal effect of not less than 90% by weight)	5 (herbicidal effect of not less than 90% by weight)	4 (herbicidal effect of not less than 70% by weight and less than 90% by weight)
CCc1c(Cl)c(-c2ccccc2)nn1CC(=COC)C(=O)OC [Compound 39]	0 (herbicidal effect of not less than 0% by weight and less than 10% by weight)	4 (herbicidal effect of not less than 70% by weight and less than 90% by weight)	5 (herbicidal effect of not less than 90% by weight)	5 (herbicidal effect of not less than 90% by weight)	4 (herbicidal effect of not less than 70% by weight and less than 90% by weight)	4 (herbicidal effect of not less than 70% by weight and less than 90% by weight)	0 (herbicidal effect of not less than 0% by weight and less than 10% by weight)	1 (herbicidal effect of not less than 10% by weight and less than 30% by weight)	4 (herbicidal effect of not less than 70% by weight and less than 90% by weight)	4 (herbicidal effect of not less than 70% by weight and less than 90% by weight)	4 (herbicidal effect of not less than 70% by weight and less than 90% by weight)	4 (herbicidal effect of not less than 70% by weight and less than 90% by weight)	0 (herbicidal effect of not less than 0% by weight and less than 10% by weight)	0 (herbicidal effect of not less than 0% by weight and less than 10% by weight)	4 (herbicidal effect of not less than 70% by weight and less than 90% by weight)	3 (herbicidal effect of not less than 50% by weight and less than 70% by weight)	3 (herbicidal effect of not less than 50% by weight and less than 70% by weight)

— patent US6809065B2, “Herbicide containing substituted pyrazole derivative as active ingredient” (SDS Biotech K.K., priority 2001, dated 2004)
